# Source: patent EP1220857B1, “GONADOTROPIN RELEASING HORMONE RECEPTOR ANTAGONISTS AND THEIR RELATED METHODS OF USE” (NEUROCRINE BIOSCIENCES, INC., priority 1999, dated 2001)
# pKi: −log10 of the molar value.
# Molecular target: T1, GnRH receptor (Homo sapiens, UniProt P30968)
# T1 construct: expressed in transfected cells
# T1 sequence (P30968 1-328): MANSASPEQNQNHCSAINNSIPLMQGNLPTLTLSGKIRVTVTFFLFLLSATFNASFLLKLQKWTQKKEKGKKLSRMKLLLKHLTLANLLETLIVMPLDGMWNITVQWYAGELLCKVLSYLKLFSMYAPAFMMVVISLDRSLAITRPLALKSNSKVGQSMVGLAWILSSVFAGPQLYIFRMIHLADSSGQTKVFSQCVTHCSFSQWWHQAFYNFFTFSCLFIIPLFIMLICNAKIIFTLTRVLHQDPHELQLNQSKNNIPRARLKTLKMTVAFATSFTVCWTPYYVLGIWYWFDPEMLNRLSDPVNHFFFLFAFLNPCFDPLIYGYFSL
# Experiment: GnRH receptor membrane binding assay
# Conditions: displacement of [125I]-labeled GnRH peptide from membranes of cells transfected with GnRH receptor expression vectors; Ki by Cheng-Prusoff
# Procedure: Activity of GnRH receptor antagonists are typically calculated from the IC50 as the concentration of a compound necessary to displace 50% of the radiolabeled ligand from the GnRH receptor, and is reported as a "Ki" value calculated by the following equation: Ki =(IC50)/(1 + L / KD) [formula] where L = radioligand and KD = affinity of radioligand for receptor (Cheng and Prusoff, Biochem. Pharmacol. 22:3099, 1973). GnRH receptor antagonists of this invention have a Ki of 100 µM or less. In a preferred embodiment of this invention, the GnRH receptor antagonists have a Ki of less than 10 µM, and more preferably less than 1µM. More preferred compounds include: 1-1, 1-2-5, 12, 13-15, 19, 21, 27, 31, 32, 34, 37, 55, 58, 64, 73, 2B, 2D, 3A, 3B, 3D, 4A, 4B, 4C, 4D, 4G, 4H, 5A and 5B (see Examples below).
# The GnRH analog is labeled by the chloramine-T method. To 10 µg of peptide in 20 µl of 0.5M sodium phosphate buffer, pH 7.6, is added 1 mCi of Na125I, followed by 22.5 µg chloramine-T and the mixture vortexed for 20 sec. The reaction is stopped by the addition of 60 µg sodium metabisulfite and the free iodine is removed by passing the iodinated mixture through a C-8 Sep-Pak cartridge (Millipore Corp., Milford, MA). The peptide is eluted with a small volume of 80% acetonitrile/water. The recovered labeled peptide is further purified by reverse phase HPLC on a Vydac C-18 analytical column (The Separations Group, Hesperia, CA) on a Beckman 334 gradient HPLC system using a gradient of acetonitrile in 0.1% TFA. The purified radioactive peptide is stored in 0.1 % BSA/20% acetonitrile/0.1% TFA at -800C and can be used for up to 4 weeks.
# Cells stably, or transiently, transfected with GnRH receptor expression vectors are harvested, resuspended in 5% sucrose and homogenized using a polytron homogenizer (2x 15 sec). Nuclei are removed by centrifugation (3000 x g for 5 min.), and the supernatant centrifuged (20,000 x g for 30 min, 4° C) to collect the membrane fraction. The final membrane preparation is resuspended in binding buffer (10mM Hepes (pH 7.5), 150 mM NaCl, and 0.1% BSA) and stored at -70°C. Binding reactions are performed in a Millipore MultiScreen 96-well filtration plate assembly with polyethylenimine coated GF/C membranes. The reaction is initiated by adding membranes (40 ug protein in 130 ul binding buffer) to 50ul of [^125I]-labeled GnRH peptide (~100,000 cpm), and 20ul of competitor at varying concentrations. The reaction is terminated after 90 minutes by application of vacuum and washing (2X) with phosphate buffered saline. Bound radioactivity is measured using 96-well scintillation counting (Packard Topcount) or by removing the filters from the plate and direct gamma counting. Ki values are calculated from competition binding data using non-linear least squares regression using the Prism software package (GraphPad Software).
row,Structure (SMILES),pKi
1,CCOC(=O)c1cn(Cc2ccccc2F)c2cc(C(C)(C)C)c(CN(C)CCc3ccccn3)n2c1=O [Example 2B],> 6.00
2,COc1cccc(-c2c(C)n(Cc3ccccc3F)c3nc(C(C)(C)C)c(CNCCc4ccccn4)n3c2=O)c1 [Example 3B],> 6.00
3,"COc1cccc(-c2c(C)n(Cc3ccccc3F)c3nc(C(C)(C)C)c(CNCc4ccccn4)n3c2=O)c1 [Example 3D, 3-(N-(2-Pyridylmethyl))aminomethyl-2-(tert-butyl)-6-methyl-7-(2-fluorobenzyl)-5-(3-methoxyphenyl)imidazolo[1,2-a]pyrimid-4-one]",> 6.00
4,"COc1cccc(-c2c(C)n(Cc3ccccc3F)c3nc(C(C)(C)C)c(CNCCc4ccccc4F)n3c2=O)c1 [Example 3A, 2-(tert-Butyl)-3-[N-(2-fluorophenyl)ethyl]aminomethyl-5-(3-methoxyphenyl)-6-methyl-7-(2-fluorobenzyl)imidazolo[1,2-a]pyrimid-4-one]",> 6.00
5,CN(CCc1ccccn1)Cc1c(C(C)(C)C)cc2n(Cc3ccccc3F)cc(C(=O)NCCCc3ccccc3)c(=O)n12 [Example 2D],> 6.00
